Measurements taken from patent publication US20160304552A1, “MODIFIED NUCLEIC ACID MOLECULES AND USES THEREOF” (MODERNA THERAPEUTICS, INC., priority 2013, published 2016).

What was measured:
[1] = test system: Rabbit Reticulocyte Lysate; test: In vitro translation screen, firefly Luciferase modRNA (luciferase assay, relative light units); format: biochemical; conditions: Table 20; 250 ng modRNA, 45 min, 30° C.
Protocol: (§1) The in vitro translation assay was done with the Rabbit Reticulocyte Lysate (nuclease-treated) kit (Promega, Madison, Wis.; Cat. #L4960) according to the manufacturer's instructions. The reaction buffer was a mixture of equal amounts of the amino acid stock solutions devoid of Leucine or Methionine provided in the kit.
(§2) The modRNAs of firefly Luciferase, human GCSF and human EPO, harboring chemical modifications on either the bases or the ribose units, were diluted in sterile nuclease-free water to a final concentration of 250 ng in 2.5 ul (Stock 100 ng/μl). The modRNA (250 ng) was added to the mixture of freshly prepared Rabbit Reticulocyte Lysate and reaction buffer.
After 45 min incubation, the reaction was stopped by placing the plate on ice. Aliquots of the in vitro translation reaction containing luciferase modRNA were transferred to white opaque polystyrene 96-well plates (Corning, Manassas, Va.; Cat. # CLS3912) and combined with 100 ul complete luciferase assay solution (Promega, Madison, Wis.). The volumes of the in vitro translation reactions were adjusted or diluted until no more than 2 million relative light units per well were detected for the strongest signal producing samples. […] The plate reader was a BioTek Synergy H1 (BioTek, Winooski, Vt.).

[2] = test system: Rabbit Reticulocyte Lysate; test: In vitro translation screen, human GCSF modRNA (GCSF ELISA); format: biochemical; conditions: Table 20; 250 ng modRNA, 45 min, 30° C.
Protocol: as §1, §2
(§3) Aliquots of the in vitro translation reaction containing human GCSF modRNA or human EPO mRNA were transferred and analyzed with a human GCSF-specific or EPO ELISA kit (both from R&D Systems, Minneapolis, Minn.; Cat. #s SCS50, DEP00 respectively) according to the manufacturer instructions. All samples were diluted until the determined values were within the linear range of the human GCSF or EPO ELISA standard curve.

[3] = target: T7 RNA polymerase (Escherichia phage T7, UniProt P00573); test: In vitro transcription yields of modified mRNA; format: biochemical; conditions: for EPO In Vitro Transcription yield: EPO mRNA made with the modified NTP(s); for GCSF In Vitro Transcription yield: GCSF mRNA made with the modified NTP(s); for Luc In Vitro Transcription yield: Luciferase mRNA made with the modified NTP(s)
[4] = test system: HeLa cells; test: Transfection in HeLa cells, human EPO modRNA (EPO ELISA of supernatant); format: cell-based; conditions: Table 22, 18 h to 22 h
[5] = test system: human PBMC; test: PBMC cytokine assay, interferon-alpha production (IFN-alpha multi-subtype ELISA); format: cell-based
Protocol: 50 mL of human blood from three donors was received from Research Blood Components (Brighton, Mass.) in sodium heparin tubes. […] The tubes were centrifuged at 2000 rpm for 30 minutes with low acceleration and braking (Thermo, Waltham, Mass., 75004506). The tubes were removed and the buffy coat PBMC layers were gently transferred to a fresh 50 mL conical and washed with DPBS. The tubes were centrifuged at 1450 rpm for 10 minutes. The supernatant was aspirated and the PBMC pellets were resuspended and washed in 50 mL of DPBS. The tubes were centrifuged at 1450 rpm for 10 minutes. […] The cell suspensions were adjusted to a concentration of 3.0×10^6 cells/mL live cells. […] Within 30 minutes, transfection mixtures were added to each well at a volume of 50 μL per well. […] The transfection mixtures were then transferred to each of the human PBMC plates at 50 μL per well (6 wells per mRNA sample). The plates were then incubated at 37° C. […] In order to harvest the supernatant, plates were centrifuged at 1450 rpm for 5 min in a swinging plate rotor. The supernatant of 6 wells transfected with the same mRNA was carefully harvested and pooled in a single well of a fresh 96-well plate. Supernatants were either frozen or used fresh until ELISA analysis was done. The ability of unmodified and modified mRNA to trigger innate immune recognition as measured by interferon-alpha production.

[6] = test system: HeLa cells; test: Transfection in HeLa cells, Luciferase modRNA (luciferase assay, relative light units); format: cell-based, human; conditions: Table 22, 83 ng modRNA, Lipofectamine 2000, 18 h to 22 h
Protocol: (§4) The day before transfection, 20.000 HeLa cells (ATCC no. CCL-2; Manassas, Va.) were harvested by treatment with Trypsin-EDTA solution (LifeTechnologies, Grand Island, N.Y.) and seeded in a total volume of 100 ul EMEM medium (supplemented with 10% FCS and 1× Glutamax) per well in a 96-well cell culture plate (Corning, Manassas, Va.). The cells were grown at 37° C. in 5% CO2 atmosphere overnight. Next day, 83 ng of Luciferase modRNA or 250 ng of human GCSF modRNA, harboring chemical modifications on the bases or the ribose units, were diluted in 10 ul final volume of OPTI-MEM (LifeTechnologies, Grand Island, N.Y.). Lipofectamine 2000 (LifeTechnologies, Grand Island, N.Y.) was used as transfection reagent and 0.2 μl were diluted in 10 ul final volume of OPTI-MEM. After 5 min incubation at room temperature, both solutions were combined and incubated additional 15 min at room temperature. Then the 20 μl were added to the 100 ul cell culture medium containing the HeLa cells. The plates were then incubated as described before.
After 18 h to 22 h incubation, cells expressing luciferase were lysed with 100 μl Passive Lysis Buffer (Promega, Madison, Wis.) according to manufacturer instructions. Aliquots of the lysates were transferred to white opaque polystyrene 96-well plates (Corning, Manassas, Va.) and combined with 100 ul complete luciferase assay solution (Promega, Madison, Wis.). The lysate volumes were adjusted or diluted until no more than 2 mio relative light units per well were detected for the strongest signal producing samples. […] The plate reader was a BioTek Synergy H1 (BioTek, Winooski, Vt.).

[7] = test system: Rabbit Reticulocyte Lysate; test: In vitro translation screen, human EPO modRNA (EPO ELISA); format: biochemical; conditions: Table 20; 250 ng modRNA, 45 min, 30° C.
Protocol: as §1, §2, §3

[8] = test system: HeLa cells; test: Transfection in HeLa cells, human GCSF modRNA (GCSF ELISA of supernatant); format: cell-based; conditions: Table 22, 250 ng modRNA, 18 h to 22 h
Protocol: as §4
After 18 h to 22 h incubation, cell culture supernatants of cells expressing human GCSF or human EPO were collected and centrifuged at 10.000 rcf for 2 min. The cleared supernatants were transferred and analyzed with a human GCSF-specific or EPO ELISA kit (both from R&D Systems, Minneapolis, Minn.; Cat. #s SCS50, DEP00, respectively) according to the manufacturer instructions. All samples were diluted until the determined values were within the linear range of the human GCSF or EPO ELISA standard curve.

Chain of T7 RNA polymerase (P00573 whole entry): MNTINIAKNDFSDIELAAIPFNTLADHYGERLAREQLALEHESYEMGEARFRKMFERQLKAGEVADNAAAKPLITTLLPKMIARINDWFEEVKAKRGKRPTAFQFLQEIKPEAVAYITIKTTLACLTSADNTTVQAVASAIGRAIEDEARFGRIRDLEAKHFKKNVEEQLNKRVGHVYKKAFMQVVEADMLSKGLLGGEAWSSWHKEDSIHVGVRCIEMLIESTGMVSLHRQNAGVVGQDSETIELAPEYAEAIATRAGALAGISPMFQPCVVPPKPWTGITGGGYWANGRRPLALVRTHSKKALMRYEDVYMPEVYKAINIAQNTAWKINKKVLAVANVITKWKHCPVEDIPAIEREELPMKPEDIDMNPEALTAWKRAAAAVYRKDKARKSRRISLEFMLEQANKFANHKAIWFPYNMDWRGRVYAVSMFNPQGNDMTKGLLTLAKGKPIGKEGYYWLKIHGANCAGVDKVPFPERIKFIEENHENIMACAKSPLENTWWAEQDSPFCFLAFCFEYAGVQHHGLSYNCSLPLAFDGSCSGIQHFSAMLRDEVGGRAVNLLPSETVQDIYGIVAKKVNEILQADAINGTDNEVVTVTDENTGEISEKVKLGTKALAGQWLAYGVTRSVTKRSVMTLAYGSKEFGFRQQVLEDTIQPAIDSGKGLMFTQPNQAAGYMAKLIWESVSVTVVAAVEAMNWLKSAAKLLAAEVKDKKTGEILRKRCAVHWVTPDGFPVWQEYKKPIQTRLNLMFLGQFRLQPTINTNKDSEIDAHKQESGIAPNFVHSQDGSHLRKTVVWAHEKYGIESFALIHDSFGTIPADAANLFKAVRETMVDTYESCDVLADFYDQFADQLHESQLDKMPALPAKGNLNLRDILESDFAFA

Compound | Luc Expression (RLUs) [1] [RLUs] | GCSF Expression [2] [pg/mL] | EPO In Vitro Transcription yield [3] [mg] | GCSF In Vitro Transcription yield [3] [mg] | Luc In Vitro Transcription yield [3] [mg] | Epo Expression [4] [pg/mL] | interferon-alpha concentration in PBMC supernatant ([5]; Luc mRNA, 1st value in cell) [pg/mL] | interferon-alpha concentration in PBMC supernatant ([5]; Luc mRNA, 2nd value in cell) [pg/mL] | interferon-alpha concentration in PBMC supernatant ([5]; Luc mRNA, 3rd value in cell) [pg/mL] | interferon-alpha concentration in PBMC supernatant ([5]; hEPO mRNA, 1st value in cell) [pg/mL] | interferon-alpha concentration in PBMC supernatant ([5]; hEPO mRNA, 2nd value in cell) [pg/mL] | interferon-alpha concentration in PBMC supernatant ([5]; hEPO mRNA, 3rd value in cell) [pg/mL] | interferon-alpha concentration in PBMC supernatant ([5]; hGCSF mRNA, 1st value in cell) [pg/mL] | interferon-alpha concentration in PBMC supernatant ([5]; hGCSF mRNA, 2nd value in cell) [pg/mL] | interferon-alpha concentration in PBMC supernatant ([5]; hGCSF mRNA, 3rd value in cell) [pg/mL] | Luc Expression (RLUs) [6] [RLUs] | Epo Expression [7] [pg/mL] | GCSF Expression [8] [pg/mL] | further results
CC(=O)Nc1ccn([C@@H]2O[C@H](COP(=O)(O)OP(=O)(O)OP(=O)(O)O)C(O)C2O)c(=O)n1 (stereo in doubt) [Compound 00901014007, N4-Ac-CTP] | 167600 | 8794 | 0.4351 | 0.3658 | 0.4394 | 2907000 | 7170 | 2500 | 5879 | 4050 | 2137.5 | 5850 | 5683.33 | 4883.33 | 4590 | 141300 | 8675 | 2094000 | 
Cn1cc([C@@H]2O[C@H](COP(O)(=S)OP(=O)(O)OP(=O)(O)O)C(O)C2O)c(=O)[nH]c1=O (stereo in doubt) [00902015002 (195), 1-Methyl-pseudo-U-alpha-thio-TP] | 1201 | 4244 | 0.7679 | 0.6582 | 0.6011 | 348600 |  |  |  |  |  |  |  |  |  | 4900 | 1694 | 372100 | Luc (3 Donor samples) ([5]; Luc mRNA, 1st value in cell): 180 pg/mL; Luc (3 Donor samples) ([5]; Luc mRNA, 2nd value in cell): 500 pg/mL; Luc (3 Donor samples) ([5]; Luc mRNA, 3rd value in cell): 180 pg/mL; hEPO (3 Donor samples) ([5]; hEPO mRNA, 1st value in cell): -290 pg/mL; hEPO (3 Donor samples) ([5]; hEPO mRNA, 2nd value in cell): 512.5 pg/mL; hEPO (3 Donor samples) ([5]; hEPO mRNA, 3rd value in cell): 475 pg/mL; hGCSF (3 Donor samples) ([5]; hGCSF mRNA, 1st value in cell): 425 pg/mL; hGCSF (3 Donor samples) ([5]; hGCSF mRNA, 2nd value in cell): 916.66 pg/mL; hGCSF (3 Donor samples) ([5]; hGCSF mRNA, 3rd value in cell): 1250 pg/mL
O=c1[nH]c(=S)[nH]cc1[C@@H]1O[C@H](COP(=O)(O)OP(=O)(O)OP(=O)(O)O)C(O)C1O (stereo in doubt) [00901015006 (193), 2-Thio-pseudo-UTP] | 2198 | 5988 | 1.081 | 0.5207 | 0.6123 | 380600 | 530 | 1180 | 1400 | -210 | 675 | 362.5 | 358.33 | 166.66 | 490 | 1999 | 12310 | 239300 | 
